What was measured:
Type in all cases: biochemical
[1] = molecular target: CDK1/CycE1 (Homo sapiens, UniProt P06493); experiment: ADP-Glo kinase assay on CDK enzymatic activity, CDK1/CycE1; settings: ADP-Glo; 10 concentrations from 10 μM, 4-fold; 60 min room temperature; read-out: CDK1/CycE1/nM (IC50)
How it was run: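 Compounds in 10-point 4-fold dilutions from 10 μM final, preincubated 10 min with kinase, then substrate/ATP added; 60 min reaction at room temperature. ADP-Glo luminescence read.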

[2] = molecular target: CDK3/CycE1 (Homo sapiens, UniProt Q00526); experiment: ADP-Glo kinase assay on CDK enzymatic activity, CDK3/CycE1; settings: 10 concentrations from 10 μM, 4-fold, 60 min room temperature
Sequence of CDK3/CycE1 (Q00526 whole entry, species assumed): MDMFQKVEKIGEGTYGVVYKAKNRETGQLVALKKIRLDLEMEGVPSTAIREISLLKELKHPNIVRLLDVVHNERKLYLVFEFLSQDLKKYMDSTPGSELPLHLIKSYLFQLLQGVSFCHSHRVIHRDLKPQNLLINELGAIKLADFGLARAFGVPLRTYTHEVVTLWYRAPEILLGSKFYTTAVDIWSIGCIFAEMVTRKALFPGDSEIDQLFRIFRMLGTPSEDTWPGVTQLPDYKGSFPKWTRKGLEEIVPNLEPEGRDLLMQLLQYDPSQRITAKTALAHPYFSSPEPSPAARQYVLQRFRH
Sequence of CDK3/CycE1 (P24864 whole entry partner, species assumed): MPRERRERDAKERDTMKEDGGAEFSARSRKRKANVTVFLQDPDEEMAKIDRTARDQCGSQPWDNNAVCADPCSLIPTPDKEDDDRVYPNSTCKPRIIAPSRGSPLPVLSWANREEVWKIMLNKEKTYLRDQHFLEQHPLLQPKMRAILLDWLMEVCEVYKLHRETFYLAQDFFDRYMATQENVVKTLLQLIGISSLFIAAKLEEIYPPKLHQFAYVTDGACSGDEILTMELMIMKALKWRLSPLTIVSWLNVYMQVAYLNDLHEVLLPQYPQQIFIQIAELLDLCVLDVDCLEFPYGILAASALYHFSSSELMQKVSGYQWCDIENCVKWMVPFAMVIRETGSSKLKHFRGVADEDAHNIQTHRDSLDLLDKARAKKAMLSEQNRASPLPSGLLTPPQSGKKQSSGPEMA
Text: (§1) Test samples: the compounds of the present invention, having structures shown above.
(§2) ADP-Glo Kinase Assay (ADP-Glo kinase kit), DMSO (dimethyl sulfoxide), CDK9/CycT1 (cyclin-dependent kinase 9/cyclin T1), CDK tide (cyclin-dependent kinase substrate peptide fragments), CDK1/CycE1 (cyclin-dependent kinase 1/cyclin E1), CDK2/CycA2 (cyclin-dependent kinase 2/cyclin A2), CDK3/CycE1 (cyclin-dependent kinase 3/cyclin E1), CDK4/CycD3 (cyclin-dependent kinase 4/cyclin D3), CDK5/p25NCK (cyclin-dependent kinase 5/p25), and AZD 4573.
(§3) A 384-well white plate, a 96-well plate, a microplate oscillator, a centrifuge, and a microplate reader.
(§4) The compounds were dissolved in DMSO and diluted 4-fold in the 96-well plate to obtain stock solutions with 10 concentration gradients, and added into a 384-well plate system to obtain a series of 10 concentration gradients of compound solutions with final concentrations of 10 μM starting and 4-fold gradient decreasing. 1 μM AZD4573 was used as compound positive control (PC) and 0.5% DMSO as solvent vehicle control (VC), ten duplicated wells each for PC and VC.
(§5) 1 μL of compound solution and 2 μL of 2× kinase solution were transferred to each well, and the plate was centrifuged at 1000 g for 30 s and left at room temperature for 10 min. A mixture of 2× substrate and ATP was prepared in 1× kinase buffer. The reaction was started after adding 2 μL of substrate and ATP into the plate. The plate was centrifuged at 1000 g for 30 s. The assay plate was closed and left at room temperature for 60 min. The reaction system was added with 4 μL of ADP Glo reagent, centrifuged at 1000 rpm for 1 min, and incubated at room temperature for 40 min. The reaction system was added with 8 μL of kinase assay reagent, centrifuged at 1000 rpm for 1 min and incubated at room temperature for 40 min. The […] was read on Biotek.
(§6) The inhibition rate was calculated according to the following formula: […]
(§7) Lumcmpd: compound fluorescence reading; Lumpositive: average value of the fluorescence reading of positive compound control; Lumvehicle: average value of the fluorescence reading of solvent vehicle control.
(§8) IC50 values were fitted using GraphPad 7.0 based on inhibition rates of compounds at different concentrations.

[3] = molecular target: CDK5/p25NCK (Homo sapiens, UniProt Q00535); experiment: ADP-Glo kinase assay on CDK enzymatic activity, CDK5/p25NCK; settings: 10 concentrations from 10 μM, 4-fold, 60 min room temperature
Sequence of CDK5/p25NCK (Q00535 whole entry, species assumed): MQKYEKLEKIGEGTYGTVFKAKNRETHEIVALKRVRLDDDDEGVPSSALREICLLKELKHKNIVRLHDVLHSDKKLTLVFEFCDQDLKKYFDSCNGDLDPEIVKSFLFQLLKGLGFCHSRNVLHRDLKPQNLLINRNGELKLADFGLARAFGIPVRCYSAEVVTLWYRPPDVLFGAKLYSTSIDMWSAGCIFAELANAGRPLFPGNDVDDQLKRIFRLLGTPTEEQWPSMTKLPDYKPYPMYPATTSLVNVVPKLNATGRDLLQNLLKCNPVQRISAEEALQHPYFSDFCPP
Sequence of CDK5/p25NCK (Q15078 99-307 partner limits assumed, species assumed): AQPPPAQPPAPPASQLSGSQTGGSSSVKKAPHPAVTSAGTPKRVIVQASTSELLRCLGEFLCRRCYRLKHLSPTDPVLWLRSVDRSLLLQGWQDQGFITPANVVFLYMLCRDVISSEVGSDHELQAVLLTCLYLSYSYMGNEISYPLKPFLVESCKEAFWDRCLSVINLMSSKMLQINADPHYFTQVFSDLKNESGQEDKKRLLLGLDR
Text: as §1, §2, §3, §4, §5, §6, §7, §8

[4] = molecular target: CDK2/CycA2 (Homo sapiens, UniProt P24941); experiment: ADP-Glo kinase assay on CDK enzymatic activity, CDK2/CycA2; settings: 10 concentrations from 10 μM, 4-fold, 60 min room temperature
How it was run: (§9)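 Kinase and compound are mixed and held 10 min at room temperature before substrate peptide and ATP start a 60 min reaction. Remaining ATP is depleted with ADP-Glo reagent (40 min), detection reagent is added (40 min), and luminescence gives inhibition rates across ten concentrations from 10 μM, fitted to IC50.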

[5] = molecular target: CDK9/CycT1 (Homo sapiens, UniProt P50750); experiment: ADP-Glo kinase assay on CDK enzymatic activity, CDK9/CycT1; settings: 10 concentrations from 10 μM, 4-fold, 60 min room temperature
Sequence of CDK9/CycT1 (P50750 whole entry): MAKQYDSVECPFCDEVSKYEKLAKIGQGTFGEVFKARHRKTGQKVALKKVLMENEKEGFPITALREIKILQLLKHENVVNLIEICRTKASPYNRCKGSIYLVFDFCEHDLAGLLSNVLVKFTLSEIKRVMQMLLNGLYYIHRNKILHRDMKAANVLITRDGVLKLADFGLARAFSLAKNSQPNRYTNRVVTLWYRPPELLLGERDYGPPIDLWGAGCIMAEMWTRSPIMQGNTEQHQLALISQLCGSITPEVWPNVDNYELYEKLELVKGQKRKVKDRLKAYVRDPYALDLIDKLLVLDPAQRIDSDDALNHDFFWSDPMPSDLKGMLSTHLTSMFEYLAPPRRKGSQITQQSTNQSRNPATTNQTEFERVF
Sequence of CDK9/CycT1 (O60563 whole entry partner): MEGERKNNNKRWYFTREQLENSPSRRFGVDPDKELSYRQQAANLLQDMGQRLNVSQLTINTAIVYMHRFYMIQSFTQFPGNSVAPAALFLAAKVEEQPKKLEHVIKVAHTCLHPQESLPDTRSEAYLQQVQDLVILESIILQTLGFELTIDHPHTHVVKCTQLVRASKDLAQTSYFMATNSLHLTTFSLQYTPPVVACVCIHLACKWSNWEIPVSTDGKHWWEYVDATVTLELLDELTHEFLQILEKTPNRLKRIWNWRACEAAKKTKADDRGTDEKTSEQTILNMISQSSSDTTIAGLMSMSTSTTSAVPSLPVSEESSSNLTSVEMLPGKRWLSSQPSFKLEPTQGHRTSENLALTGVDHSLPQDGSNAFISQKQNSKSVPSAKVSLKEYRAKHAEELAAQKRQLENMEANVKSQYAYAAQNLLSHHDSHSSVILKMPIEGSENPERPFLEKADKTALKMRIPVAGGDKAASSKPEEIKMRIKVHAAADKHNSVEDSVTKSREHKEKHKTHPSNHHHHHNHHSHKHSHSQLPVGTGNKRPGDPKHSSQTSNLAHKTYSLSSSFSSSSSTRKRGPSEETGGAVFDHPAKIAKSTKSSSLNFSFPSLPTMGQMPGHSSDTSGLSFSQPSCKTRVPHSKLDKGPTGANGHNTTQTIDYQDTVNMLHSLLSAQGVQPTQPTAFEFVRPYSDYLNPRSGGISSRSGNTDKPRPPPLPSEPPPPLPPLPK
How it was run: as §9

Sequence of CDK1/CycE1 (P06493 whole entry, species assumed): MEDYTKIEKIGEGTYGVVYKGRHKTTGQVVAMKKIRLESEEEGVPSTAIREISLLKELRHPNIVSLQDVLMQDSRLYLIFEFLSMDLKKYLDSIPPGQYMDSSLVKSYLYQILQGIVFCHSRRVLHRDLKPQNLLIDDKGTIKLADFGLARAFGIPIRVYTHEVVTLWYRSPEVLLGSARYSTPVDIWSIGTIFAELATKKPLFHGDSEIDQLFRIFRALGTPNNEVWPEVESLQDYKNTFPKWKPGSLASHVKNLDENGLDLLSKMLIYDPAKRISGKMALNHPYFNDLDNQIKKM
Sequence of CDK1/CycE1 (P24864 whole entry partner, species assumed): as the sequence (P24864 whole entry partner, species assumed) above

IC50 [1]	IC50 [2]	IC50 [3]	IC50 [4]	IC50 [5]	Structure (SMILES)
42 nM	60 nM	295 nM	126 nM	1 nM	CC(C)(C)Nc1nc(C#N)cc2cnc(N[C@H]3CCCNC3)cc12 [Compound 149, (S)-1-(tert-butylamino)-7-(piperidin-3-ylamino)-2,6-naphthyridine-3-carbonitrile]
48 nM	53 nM	465 nM	48 nM	4 nM	CC(C)(C)Nc1nc(C(F)F)cc2cnc(NC3CCNCC3)nc12 [Compound C2, N^8-(tert-butyl)-6-(difluoromethyl)-N^2-(piperidin-4-yl)pyrido[3,4-d]pyrimidine-2,8-diamine]
133 nM	67 nM	706 nM	562 nM	2 nM	CC(C)Oc1nc(C#N)cc2cnc(N[C@H]3CCCNC3)cc12 [Compound 153, (S)-1-(isopropoxy)-7-(piperidin-3-ylamino)-2,6-naphthyridine-3-carbonitrile]
104 nM	49 nM	165 nM	171 nM	1 nM	CC1(Nc2nc(C#N)cc3cnc(N[C@H]4CCCNC4)cc23)CC1 [Compound 148, (S)-1-((1-methylcyclopropyl)amino)-7-(piperidin-3-ylamino)-2,6-naphthyridine-3-carbonitrile]
149 nM	1100 nM	263 nM	244 nM	2 nM	CCOc1nc(C(F)F)cc2cnc(N[C@H]3C[C@H](N)C3)cc12 [Compound 200, (trans)-N^1-(7-(difluoromethyl)-5-ethoxy-2,6-naphthyridin-3-yl)cyclobutane-1,3-diamine]
336 nM	915 nM	176 nM	352 nM	3 nM	CCNc1nc(C#N)cc2cnc(N[C@H]3CCCNC3)cc12 [Compound 186, (S)-1-(ethylamino)-7-(piperidin-3-ylamino)-2,6-naphthyridine-3-carbonitrile]
1020 nM	371 nM	3840 nM	2320 nM	5 nM	N#Cc1cc2cnc(N[C@H]3CCCNC3)cc2c(O[C@@H]2CCOC2)n1 [Compound 154, 7-(((S)-piperidin-3-yl)amino)-1-(((R)-tetrahydrofuran-3-yl)oxy)-2,6-naphthyridine-3-carbonitrile]
7 nM	7 nM	17 nM	21 nM	2 nM	CC(C)(C)Nc1nc(C(F)F)cc2cnc(N[C@H]3CCCNC3)nc12 [Compound C1]
163 nM	990 nM	96 nM	125 nM	1 nM	CCNc1nc(C#N)cc2cnc(N[C@H]3C[C@H](N)C3)cc12 [Compound 184, 7-(((trans)-3-aminocyclobutyl)amino)-1-(ethylamino)-2,6-naphthyridine-3-carbonitrile]
467 nM	340 nM	7980 nM	1310 nM	6 nM	CC(C)Nc1nc(C#N)cc2cnc(N[C@@H]3CN4CCC3CC4)nc12 [Compound C45, (S)-8-(isopropylamino)-2-(quinuclidin-3-ylamino)pyrido[3,4-d]pyrimidine-6-carbonitrile]
903 nM	1410 nM	523 nM	1010 nM	2 nM	CC1(Oc2nc(C#N)cc3cnc(N[C@H]4CCCNC4)cc23)CC1 [Compound 204, (S)-1-(1-methylcyclopropoxy)-7-(piperidin-3-amino)-2,6-naphthyridine-3-carbonitrile]
411 nM	832 nM	4140 nM	1290 nM	8 nM	N#Cc1cc2cnc(N[C@H]3CCCNC3)cc2c(N[C@H]2CCOC2)n1 [Compound 151, 7-(((S)-piperidin-3-yl)amino)-1-(((S)-tetrahydrofuran-3-yl)amino)-2,6-naphthyridine-3-carbonitrile]
19 nM	8 nM	60 nM	33 nM	2 nM	CC(C)Nc1nc(C(F)(F)F)cc2cnc(N[C@H]3CCCNC3)nc12 [Compound C46, (S)—N^8-isopropyl-N^2-(piperidin-3-yl)-6-(trifluoromethyl)pyrido[3,4-d]pyrimidine-2,8-diamine]
215 nM	189 nM	53 nM	83 nM	2 nM	FC(F)c1cc2cnc(N[C@H]3CCCNC3)cc2c(N[C@@H]2CCOC2)n1 [Compound 201, 3-(difluoromethyl)-N7—((S)-piperidin-3-yl)-N^1—((R)-tetrahydrofuran-3-yl)-2,6-naphthyridine-1,7-diamine]

More lines, now with the values behind:

Structure (SMILES)	IC50 [1]	IC50 [2]	IC50 [3]	IC50 [4]	IC50 [5]
CC(C)(C)Oc1nc(C#N)cc2cnc(N[C@H]3CCCNC3)cc12 [Compound 152, (S)-1-(tert-butoxy)-7-(piperidin-3-ylamino)-2,6-naphthyridine-3-carbonitrile]	110 nM	124 nM	1000 nM	267 nM	2 nM
CC(C)Nc1nc(C#N)cc2cnc(N[C@H]3CCCNC3)cc12 [Compound 38, (S)-1-(isopropylamino)-7-(piperidin-3-ylamino)-2,6-naphthyridine-3-carbonitrile]	83 nM	66 nM	103 nM	110 nM	2 nM
CC(C)Nc1nc(C#N)cc2cnc(N[C@H]3CC[C@H](C)NC3)cc12 [Compound 103, 1-(isopropylamino)-7-(((3S,6S)-6-methylpiperidin-3-yl)amino)-2,6-naphthyridine-3-carbonitrile]	206 nM	398 nM	294 nM	167 nM	3 nM
CC(Nc1nc(C#N)cc2cnc(N[C@H]3CCCNC3)cc12)C(F)(F)F (stereo partly drawn) [Compound 61, 7-(((S)-piperidin-3-yl)amino)-1-((1,1,1-trifluoropropan-2-yl)amino)-2,6-naphthyridine-3-carbonitrile]	173 nM	124 nM	484 nM	227 nM	3 nM
CC(C)Nc1nc(C#N)cc2cnc(N[C@H]3CCCCNC3)cc12 [Compound 142, (S)-7-(azepan-3-ylamino)-1-(isopropylamino)-2,6-naphthyridine-3-carbonitrile]	90 nM	66 nM	306 nM	600 nM	2 nM
CC(C)Nc1nc(C#N)cc2cnc(N[C@H]3C[C@H](N)C3)nc12 [Compound 127, 2-(((1r,3r)-3-aminocyclobutyl)amino)-8-(isopropylamino)pyrido[3,4-d]pyrimidine-6-carbonitrile]	10 nM	8 nM	46 nM	14 nM	1 nM
CC(C)Nc1nc(C#N)cc2cnc(N[C@H]3C[C@@H](N)C3)nc12 [Compound 126, 2-(((1s,3s)-3-aminocyclobutyl)amino)-8-(isopropylamino)pyrido[3,4-d]pyrimidine-6-carbonitrile]	95 nM	287 nM	238 nM	181 nM	2 nM
CC(C)Nc1nc(C#N)cc2cnc(NC34CC(N)(C3)C4)nc12 [Compound 128, 2-((3-aminobicyclo[1.1.1]pentan-1-yl)amino)-8-(isopropylamino)pyrido[3,4-d]pyrimidine-6-carbonitrile]	43 nM	34 nM	65 nM	54 nM	2 nM
CC(C)Nc1nc(C#N)cc2cnc(N[C@H]3CC[C@H](N)CC3)nc12 [Compound 136, 2-(((1r,4r)-4-aminocyclohexyl)amino)-8-(isopropylamino)pyrido[3,4-d]pyrimidine-6-carbonitrile]	315 nM	27 nM	116 nM	13 nM	2 nM

— patent US20250163043A1 (TRANSTHERA SCIENCES (NANJING), INC., priority 2021, published 2025)
